Key:
[1] = Cytotoxicity on THP-1 cell line (MTT); assay type: cell-based; settings: human, THP-1 cells, THP1 cell line
In short: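 THP-1 cells exposed to compounds for 72 h at 37 °C, then MTT (0.5 mg/mL) for 2 h, absorbance at 570 nm. Viability expressed relative to DMSO-treated cells; CC50 is the mean of three independent experiments.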

[2] = test system: L. infantum intracellular amastigotes; assay: Antileishmanial activity on L. infantum intracellular (intra-THP1 macrophage) amastigotes; assay type: cell-based; settings: Leishmania infantum, THP-1; intramacrophage (THP1) amastigotes, 120 h; read-out: EC50 L. infantum Intra. Ama.
Method: The undifferentiated THP1 human monocyte cells (acute monocytic leukemia cell line purchased from ATCC, ref TIB-202) were grown in RPMI 1640 medium (Life Technologies, Saint-Aubin, France) supplemented with 10% FCS (Life Technologies, Saint-Aubin, France), 100 U/mL penicillin, 100 µg/mL streptomycin and 2 mM L-glutamine at 37 °C, 5% CO2. The culture was maintained between 3.10^5 and 1.10^6 cells/mL. The in vitro evaluation of the antileishmanial activity on intracellular amastigote forms of the tested compound was assessed as below.
Briefly, 200 μL of THP-1 cells with Phorbol 12-Myristate 13-Acetate (final concentration 50 ng/mL) were seeded in 96-well plates at an average density of 0.77 × 10^5 cells/mL and incubated for 96 h at 37 °C, 5% CO2. Promastigotes were centrifuged at 3000 rpm for 10 min and the supernatant replaced by the same volume of complete RPMI pH 5.4 and incubated for 24 h at 27 °C. Differentiated THP-1 cells were then infected by acidified promastigotes with an infection ratio of twenty parasites for one macrophage and incubated for 24 h at 37 °C, 5% CO2.
• Luciferase activity and determination of EC50 were performed as above.

[3] = Mouse microsomal stability; assay type: in vitro ADME; settings: female, CD-1, pH 7.4; mouse liver microsomes; read-out: Mouse Microsomal Stability T1/2
Method: The tested product and propranolol, used as reference, were incubated in duplicate (reaction volume of 0.5 mL) with female mouse microsomes (CD-1, 20 mg/mL, BD Gentest™) at 37 °C in a 50 mM phosphate buffer, pH 7.4, in the presence of MgCl2 (5 mM), NADP (1 mM), glucose-6-phosphate dehydrogenase (0.4 U/mL) and glucose-6-phosphate (5 mM). […] After centrifugation at 10,000× g, 10 min, 4 °C, the supernatants were maintained at 4 °C for immediate analysis or placed at -80 °C for later analysis. Controls (t0 and tfinal) in triplicate were prepared by incubation of the internal standard with microsomes denatured by acetonitrile. […] The mobile phases were (A) ammonium acetate 10 mM and (B) acetonitrile with 0.1% formic acid. The injection volume was 1 µL and the flow rate 600 µL/min. […] Each compound was quantified by converting the average of the ratios of the analyte/internal standard surfaces to the percentage of product consumed. The ratio of the control at t0 corresponded to 0% of product consumed. The half-life (T1/2) of each compound in the presence of microsomes was calculated according to the equation: t1/2=ln(2)/k , where k is the first-order degradation constant (the slope of the logarithm of compound concentration versus incubation time). The intrinsic clearance in vitro (Clint expressed in μL/min/mg) is calculated according to the equation: Clint=dose/AUC∞/[microsomes] where “dose” is the initial concentration of product in the sample, AUC∞ is the area under the concentration-time curve extrapolated to infinity and [microsomes] is the microsome concentration expressed in mg/µL.

[4] = Thermodynamic solubility at pH 7.4 (miniaturized shake-flask); assay type: physicochemical; settings: phosphate buffer (PBS), aqueous buffer, kinetic from dmso stock, pH 7.4, PBS, 23 °C
Method: Thermodynamic solubility at pH 7.4 of compounds was determined according to a miniaturized shake-flask method (Organisation for Economic Cooperation and Development guideline n°105). Phosphate Buffer solutions (pH 7.4, […], ionic strength […]) were prepared from Na2HPO4, KH2PO4 and KCl (Sigma Aldrich, Saint Quentin Fallavier, France); 10 µL of 20 mM stock solution were added to 5 mL glass tubes containing […] buffer (n = 3). The tubes were briefly sonicated and shacked by inversion during 24 h at 23 °C. Then, the tube contents were placed in a microtube which was centrifuged at 12,225× g for 10 min; 100 µL supernatant were mixed with 100 µL acetonitrile in a Greiner UV microplate. Standard solutions were prepared extemporaneously, diluting 20 mM DMSO stock solutions at […]; 5 µL of each working solution were diluted with 995 µL buffer and 100 µL were then mixed in microplates with 100 µL acetonitrile so as to ensure that the final proportions of each solvent in standard solutions and samples remained unchanged. Solubility at pH 7.4 was determined with an Infinite M200Pro (Tecan, Lyon, France) microplate reader in spectrophotometric mode (230 to 450 nm) from the specific λmax of each compound. The calibration curve was obtained from the […] standard solutions of tested compounds at 0, 25, 50, and 100 µM in a 50:50 (vol/vol) mixture of buffer with acetonitrinile/DMSO (99:1; vol/vol). Calibration curves were linear with R^2 > 0.99.

[5] = Cytotoxicity evaluation on HepG2 cell line (MTT); assay type: cell-based; settings: human, HepG2 cells

With O=[N+]([O-])c1c(CS(=O)(=O)c2ccc(F)cc2)nc2c(Sc3ccc(Cl)cc3)cc(Cl)cn12 [Compound 3c, 6-Chloro-8-[(4-Chlorophenyl)thio]-2-[(4-Fluorophenylsulfonyl)methyl]-3-Nitroimidazo[1,2-a]pyridine] the CC50 at 72 h [1] was > 100 µM, the EC50 [2] was 1.6 ± 0.1 µM and the melting point was 197 °C. The half-life [3] was 5.7 min, the solubility thermodynamic at 24 h [4] was < 2 µM and the CC50 at 72 h [5] was > 15.6 µM.
